Results from patent publication US20260297080A1, “BICYCLIC COMPOUNDS AS CDK INHIBITORS” (BeOne Medicines I GmbH, priority 2022, published 2026).

How the values were obtained:
[1] = target: CDK1/Cyclin B1 (Homo sapiens, UniProt P06493); experiment: CDK1/Cyclin B1 Biochemical Assay (TR-FRET), 1 mM ATP; conditions: 0.15 μM Rb (Ser780)-biotin substrate, pH7.0, 60 min preincubation, 90 min reaction, room temperature
In short: (§1)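 TR-FRET kinase reaction with 1 mM ATP and 0.15 μM Rb (Ser780)-biotin substrate in pH 7.0 HEPES buffer; enzyme preincubated 60 min with compound (0-10 μM), then reacted 90 min at room temperature. Phospho-Rb detected by Eu-anti-pRb/streptavidin-XL665 665/620 nm ratio; IC50 from four-parameter logistic fit.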

[2] = target: CDK2/Cyclin E1 (Homo sapiens, UniProt P24941); experiment: CDK2/Cyclin E1 Biochemical Assay (TR-FRET), 1 mM ATP; conditions: 0.15 μM Rb (Ser780)-biotin substrate, pH7.0, 60 min preincubation, 90 min reaction, room temperature
In short: as §1

CDK1/Cyclin B1, sequence (P06493 whole entry): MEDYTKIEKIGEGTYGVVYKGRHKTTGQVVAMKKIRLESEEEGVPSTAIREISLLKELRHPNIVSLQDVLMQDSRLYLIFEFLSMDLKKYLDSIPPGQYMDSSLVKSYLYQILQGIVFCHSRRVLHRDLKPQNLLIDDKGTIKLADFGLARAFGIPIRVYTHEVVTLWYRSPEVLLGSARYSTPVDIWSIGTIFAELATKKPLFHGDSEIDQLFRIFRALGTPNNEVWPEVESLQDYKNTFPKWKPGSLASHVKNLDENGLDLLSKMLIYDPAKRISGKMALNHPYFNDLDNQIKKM
CDK1/Cyclin B1, sequence (P14635 whole entry partner): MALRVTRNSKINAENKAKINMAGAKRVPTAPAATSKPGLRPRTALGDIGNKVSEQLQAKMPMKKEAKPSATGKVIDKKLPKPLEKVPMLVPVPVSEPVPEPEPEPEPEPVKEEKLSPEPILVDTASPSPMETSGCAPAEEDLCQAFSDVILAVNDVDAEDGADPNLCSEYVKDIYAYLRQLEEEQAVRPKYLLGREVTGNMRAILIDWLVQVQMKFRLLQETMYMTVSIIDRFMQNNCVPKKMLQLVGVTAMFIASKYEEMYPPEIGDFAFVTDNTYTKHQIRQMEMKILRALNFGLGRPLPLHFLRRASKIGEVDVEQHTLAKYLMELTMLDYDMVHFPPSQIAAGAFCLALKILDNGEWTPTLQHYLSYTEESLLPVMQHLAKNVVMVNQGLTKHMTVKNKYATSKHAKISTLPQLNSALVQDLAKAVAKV

Compound | IC50 [1] [nM] | IC50 [2] [nM]
[2H]C([2H])([2H])N1c2ccc(Nc3cc([C@@H]4CC[C@H](OC(=O)NC56CC(C5)C6)C4)[nH]n3)cc2CS1(=O)=O (relative stereo) [Example 455, cis-3-(3-((1-(methyl-d3)-2,2-dioxido-1,3-dihydrobenzo[c]isothiazol-5-yl)amino)-1H-pyrazol-5-yl)cyclopentyl bicyclo[1.1.1]pentan-1-ylcarbamate] | 97 | 0.9
CC(C)(CO)NC(=O)O[C@H]1CC[C@@H](c2cc(Nc3ccc4c(c3F)CN(C3CC3)S4(=O)=O)n[nH]2)C1 (single isomer, unassigned) [Example 359a, cis-3-(3-((2-cyclopropyl-4-fluoro-1,1-dioxido-2,3-dihydrobenzo[d]isothiazol-5-yl)amino)-1H-pyrazol-5-yl)cyclopentyl(1-hydroxy-2-methylpropan-2-yl)carbamate] | 8020 | 14
